Test systems include CAKI-1 renal; CCRF-CEM leukemia; NCI-H23 lung; SF-268 CNS; SNB-19 CNS; TK-10 renal; U251 CNS; UACC-62 melanoma; UO-31 renal; MDA-MB-231 breast.
Common to all, as to assay: NCI anticancer screen, dose series, 48 h

The structures appear in SMILES notation.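 Step 1: Grow cells in 96-well plates. Step 2: Expose to compound for 48 hours at 5 concentrations. Step 3: Interpolate endpoints linearly; if unreached, use highest concentration. The concentration for full growth arrest is given as TGI.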 A value given as a limit tells only on which side of the number the result lay.

With `CCOC(OCC)C(CC)[Se]c1ccccc1` (stereo unspecified), the TGI in the experiment with CAKI-1 renal was above 100 µM; in the experiment on CCRF-CEM leukemia, above 100 µM; in the experiment on NCI-H23 lung it was 73.9 µM; in the experiment with SF-268 CNS, above 100 µM; in the experiment with SNB-19 CNS it was above 100 µM; in the experiment on TK-10 renal it was above 100 µM. Moreover, the TGI in the experiment on U251 CNS, with UACC-62 melanoma and with UO-31 renal was above 100 µM throughout.
As to `COc1ccc(N=Nc2c(-c3ccccc3)nn(C(=O)CC(=O)Nc3ccccc3Cl)c2-c2ccccc2)cc1`, the TGI with CAKI-1 renal, in the experiment with CCRF-CEM leukemia, in the experiment on NCI-H23 lung, in the experiment on SF-268 CNS, in the experiment on SNB-19 CNS and with TK-10 renal was above 100 µM throughout. Besides, the TGI in the experiment with U251 CNS, in the experiment with UACC-62 melanoma and in the experiment on UO-31 renal was above 100 µM each time.
On to `Cc1ccc(NC(=O)/C(=N/NC(=O)C[N+](C)(C)C)c2nc3ccccc3[nH]c2=O)cc1`, for which the TGI with CAKI-1 renal is above 100 µM; in the experiment on NCI-H23 lung, above 100 µM; in the experiment with SF-268 CNS, above 100 µM; in the experiment on SNB-19 CNS it was above 100 µM; in the experiment with TK-10 renal it was above 100 µM; in the experiment with U251 CNS it was 85.3 µM. The TGI with UACC-62 melanoma and with UO-31 renal was above 100 µM each time.
Take `O=C(/C=C/c1ccccc1O)c1cccc2ccccc12`: the TGI was above 100 µM with CAKI-1 renal; 54 µM with CCRF-CEM leukemia; above 100 µM in the experiment with NCI-H23 lung; above 100 µM in the experiment with SF-268 CNS; above 100 µM with SNB-19 CNS; above 100 µM in the experiment on TK-10 renal. Also, the results for the TGI in the experiment with U251 CNS, with UACC-62 melanoma and with UO-31 renal were above 66.4 µM, above 100 µM and above 100 µM, respectively.
Regarding `CN(C)C(=S)/N=c1\ss/c(=N\C(=S)N(C)C)n1Cc1ccco1`, the TGI in the experiment with CAKI-1 renal, with CCRF-CEM leukemia, with SF-268 CNS, with SNB-19 CNS, with TK-10 renal and with U251 CNS was above 100 µM each time. Moreover, the TGI in the experiment with UACC-62 melanoma and in the experiment on UO-31 renal was above 100 µM in each case.
For `CC(=O)OCCOCNC(=S)N/N=C(\C)c1cccs1`, the TGI in the experiment on CCRF-CEM leukemia, with NCI-H23 lung, in the experiment with SF-268 CNS, with SNB-19 CNS, in the experiment with TK-10 renal and in the experiment with U251 CNS was above 100 µM in each case. In addition, the TGI in the experiment on UACC-62 melanoma and in the experiment with UO-31 renal was above 100 µM each time.
Regarding `CN(C(=O)C12C3C4C1C1C2C3C41C(O)C(C)(C)C)C(C)(C)C` (stereo unspecified), the TGI in the experiment on CAKI-1 renal, in the experiment on CCRF-CEM leukemia, with NCI-H23 lung, with SF-268 CNS, in the experiment with SNB-19 CNS and with TK-10 renal was above 100 µM each time. In addition, the TGI in the experiment on U251 CNS, in the experiment on UACC-62 melanoma and in the experiment with UO-31 renal was above 100 µM throughout.
With `Cc1cccc(C(C)C)c1NC(=O)CCl`, the TGI with CAKI-1 renal is 91.7 µM; in the experiment on CCRF-CEM leukemia, above 100 µM; with NCI-H23 lung, 80 µM; with SF-268 CNS it was above 100 µM; with SNB-19 CNS it was above 100 µM; with U251 CNS, above 100 µM. Further, the TGI in the experiment with UACC-62 melanoma was 63.2 µM; in the experiment with UO-31 renal, above 100 µM.
Regarding `Cn1nc2ccc3nccc(NCCNCCO)c3c2n1`, the TGI in the experiment with CAKI-1 renal, in the experiment on CCRF-CEM leukemia, with NCI-H23 lung, with SF-268 CNS, with SNB-19 CNS and in the experiment on TK-10 renal was above 100 µM in each case. Further, the TGI in the experiment on U251 CNS was above 100 µM; in the experiment with UACC-62 melanoma, above 100 µM; with UO-31 renal, 90.9 µM.
As to `OCC(O)COc1c(Cl)cc(Cl)cc1Cl` (stereo unspecified), the TGI in the experiment on CAKI-1 renal was above 100 µM; in the experiment with CCRF-CEM leukemia it was above 61.9 µM; with NCI-H23 lung it was above 100 µM; in the experiment on SF-268 CNS it was above 100 µM; in the experiment on SNB-19 CNS it was above 100 µM; in the experiment with TK-10 renal, above 100 µM. In addition, the TGI with U251 CNS, in the experiment on UACC-62 melanoma and with UO-31 renal was above 100 µM throughout.
As to `CC[C@H]1CN(C)[C@H]2Cc3c([nH]c4ccccc34)C(=O)C[C@H]1C2C(=O)OC` (stereo partly specified), the TGI in the experiment with CCRF-CEM leukemia, with MDA-MB-231 breast, in the experiment on NCI-H23 lung, with SF-268 CNS, in the experiment on SNB-19 CNS and with TK-10 renal was above 100 µM in each case. Further, the TGI with U251 CNS, in the experiment on UACC-62 melanoma and in the experiment on UO-31 renal was above 100 µM each time.
Regarding `CCOc1ccc(NCC2CC/C(=C\c3ccc(Cl)cc3)C2=O)cc1` (stereo unspecified), the TGI in the experiment on CAKI-1 renal is above 73.8 µM; in the experiment with CCRF-CEM leukemia it was 22.8 µM; in the experiment on NCI-H23 lung, above 73.4 µM; in the experiment with SF-268 CNS, above 86.7 µM; in the experiment on SNB-19 CNS, above 100 µM; in the experiment on TK-10 renal, above 65.6 µM. The TGI in the experiment on U251 CNS is above 57.3 µM; in the experiment on UACC-62 melanoma, above 64.3 µM; in the experiment on UO-31 renal, above 58.5 µM.
Consider `O=C1CCCC(O)=C1SC1=C(O)CCCC1=O`, for which the TGI in the experiment on CAKI-1 renal, in the experiment on CCRF-CEM leukemia, with NCI-H23 lung, in the experiment with SF-268 CNS, in the experiment on SNB-19 CNS and with TK-10 renal was above 100 µM throughout. Moreover, the TGI in the experiment on U251 CNS, in the experiment with UACC-62 melanoma and with UO-31 renal was above 100 µM throughout.
With `CCOC(=O)C(=O)Nc1ccccc1OCC`, the TGI in the experiment on CAKI-1 renal, with CCRF-CEM leukemia, in the experiment with NCI-H23 lung, with SF-268 CNS, with SNB-19 CNS and with TK-10 renal was above 100 µM in each case. The TGI in the experiment with U251 CNS, in the experiment on UACC-62 melanoma and with UO-31 renal was above 100 µM in each case.
Regarding `c1ccc2c(c1)Sc1ccccc1N2C1CN2CCC1CC2` (stereo unspecified), the TGI with CAKI-1 renal came out at 33.9 µM; in the experiment on CCRF-CEM leukemia, 33.9 µM; in the experiment on NCI-H23 lung, 74.5 µM; in the experiment on SF-268 CNS, 63 µM; in the experiment on SNB-19 CNS it was 46.7 µM; with TK-10 renal, 27.7 µM. Moreover, the TGI with U251 CNS was 30.9 µM; with UACC-62 melanoma it was 34.5 µM; in the experiment on UO-31 renal, 39.6 µM.

Source of the values: PubChem BioAssay (NCI).
